Laboratory results reported in patent US20250066286A1, “COMPOSITIONS OF (Z)-ENDOXIFEN AND METHODS OF ENRICHMENT THEREOF” (Atossa Therapeutics, Inc., priority 2022, published 2025).

Legend:
Assay type in all cases: physicochemical
[1] = Single solvent slurries of (Z)-endoxifen (XRPD of recovered solid)
Description: Further solubility analyses were then performed for solvents which formed suspensions at 50° C. […] The suspensions were recovered and filtered with a nylon filter (0.22 μm) during centrifugation at 4000 rpm for 3 minutes. The solid (Z)-endoxifen collected through filtration was analyzed by XRPD. (Z)-endoxifen remaining in the filtrate was precipitated by addition of antisolvent and also subjected to XRPD analysis.

[2] = Precipitation of (Z)-endoxifen by cooling, gradient precipitation (XRPD); details: GRAD
Description: Z)-endoxifen was precipitated by cooling various single and multi- solvent systems. […] The crystallizations utilized cooling rates of 0.5° C./minute or 0.2° C./minute. The samples were then incubated 25° C. with stirring for approximately 15 hours. Some solutions generated precipitate, which was recovered by filtration with a nylon filter (0.22 μm) during centrifugation at 4000 rpm for 3 minutes.
The resulting precipitate was recovered by filtration with a nylon filter (0.22 μm) during centrifugation at 4000 rpm for 3 minutes.
All precipitates were collected for XRPD analysis.

[3] = Scale-up crystallizations of (Z)-endoxifen Form I, Form IV, Form VII (XRPD); details: ethyl acetate 0.8 mL sat, heptane 4 mL, RT to −20 °C, 1 d
Description: The acetonitrile slurry method for generating Form I (EXAMPLE 5) was performed on a 800 mg-scale. For this crystallization, 800 mg (Z)-endoxifen was partially dissolved in 8 ml acetonitrile at a concentration of 100 mg/ml and left under magnetic stirring at 50° C. for 2 days. Solid (Z)-endoxifen was collected from the slurry and analyzed by XRPD, confirming that the resultant solid was Form I. The remaining slurry was then filtered with a 0.45p m paper filter under vacuum and analyzed by XRPD, which indicated a yield of 94% for the resultant Form I
The EXAMPLE 6 procedure for generating Form IV by precipitation from 2-propanol/ethyl acetate (50/50 v/v) systems was scaled to both 500 mg and 1 g. For these crystallizations, (Z)-endoxifen was added to 2-propanol/ethyl acetate 50/50 (v/v) mixtures to achieve concentrations of 100 mg/ml. The solvent mixtures were then heated to 65° C. Once complete dissolution of (Z)-endoxifen occurred, the solvent mixtures were cooled to 25° C. at a rate of 0.2° C./minute. The solutions were maintained at 25° C. with stirring for 18 hours, and then vacuum filtered with a 0.45 μm paper filter.
The ethyl acetate:heptane crystallizations outlined in EXAMPLE 10 were repeated at larger scales. […]

[4] = SLHT-1D-ACN(100 mg/ml) - Form I reference, FIG. 76: acetonitrile, 100 mg/mL, 50° C., 1 d
[5] = SLHT-1D-ACT(100 mg/ml), FIG. 77: acetone, 100 mg/mL, 40° C., 1 d
[6] = SLRT-14D-BME, FIG. 74: butyl methyl ether, 10 mg/mL, RT, 14 d
[7] = 2-propanol 0.5 mL, 20 mg/mL, 75 to 25 °C, ramp −0.2
[8] = acetone 0.5 mL, 20 mg/mL, 25 to −20 °C, ramp not controlled, 3 d
[9] = acetonitrile 0.5 mL, 20 mg/mL, 75 to 25 °C, ramp −0.2
[10] = butyl acetate 0.5 mL, 100 mg/mL, 100 to 25 °C, ramp −0.2
[11] = ethanol 0.5 mL, 20 mg/mL, 75 to 25 °C, ramp −0.2

CC/C(=C(\c1ccc(O)cc1)c1ccc(OCCNC)cc1)c1ccccc1 [(Z)-endoxifen, (Z)-4-(1-(4-(2-(methylamino)ethoxy)phenyl)-2-phenylbut-1-enyl)phenol]
Output Main phase [phase] ([1]; SLHT-1D-ACN(50 mg/ml), FIG. 80: acetonitrile, 50 mg/mL, 50° C., 1 d): Form I | Output Main phase [phase] ([1]; SLHT-1D-ACN(50 mg/ml)-vial attached, FIG. 92: acetonitrile, 50 mg/mL, 50° C., 1 d): Form I | Output Crystallinity [high/low/SC/oriented] [1, 4]: high | Output Main phase [phase] [1, 4]: Form I | Output Main phase [phase] ([1]; SLHT-1D-ACT(50 mg/ml), FIG. 80: acetone, 50 mg/mL, 40° C., 1 d): Form I | Output Crystallinity [high/low/SC/oriented] [1, 5]: high | Output Main phase [phase] [1, 5]: Form I | Output Main phase [phase] ([1]; SLHT-1D-BME, FIG. 75: butyl methyl ether, 10 mg/mL, 40° C., 1 d): Form I | Output Main phase [phase] ([1]; SLHT-1D-H2O, FIG. 75: water, 10 mg/mL, 50° C., 1 d): Form I | Output Main phase [phase] ([1]; SLHT-1D-HEP, FIG. 75: heptane, 10 mg/mL, 50° C., 1 d): Form I | Output Main phase [phase] ([1]; SLRT-1D-DMF(300 mg/ml), FIG. 81: dimethylformamide, 300 mg/mL, RT, 1 d): Form I | Output Main phase [phase] ([1]; SLRT-1D-ETA(20 mg/ml), FIG. 81: ethyl acetate, 20 mg/mL, RT, 1 d): Form I | Output Main phase [phase] ([1]; SLRT-2D-THF(170 mg/ml), FIG. 81: tetrahydrofuran, 169.7 mg/mL, RT, 2 d): Form I | Output Main phase [phase] ([1]; SLRT-3D-ACT(40 mg/ml), FIG. 78: acetone, 40 mg/mL, RT, 3 d): Form I | Output Main phase [phase] ([1]; SLRT-3D-BME, FIG. 73: butyl methyl ether, 10 mg/mL, RT, 3 d): Form I | Output Main phase [phase] ([1]; SLRT-3D-ETH(40 mg/ml), FIG. 78: ethanol, 40 mg/mL, RT, 3 d): Form I | Output Main phase [phase] ([1]; SLRT-3D-H2O, FIG. 73: water, 10 mg/mL, RT, 3 d): Form I | Output Main phase [phase] ([1]; SLRT-3D-HEP, FIG. 73: heptane, 10 mg/mL, RT, 3 d): Form I | Output Main phase [phase] ([1]; SLRT-6HRS-ACT(40 mg/ml), FIG. 81: acetone, 40 mg/mL, RT, 6 h): Form I | Output Main phase [phase] ([1]; SLRT-14D-2PR(100 mg/ml), FIG. 83: 2-propanol, 100 mg/mL, RT, 14 d): Form I | Output Main phase [phase] ([1]; SLRT-14D-ACN(100 mg/ml), FIG. 83: acetonitrile, 100 mg/mL, RT, 14 d): Form I | Output Main phase [phase] ([1]; SLRT-14D-ACT(40 mg/ml), FIG. 79: acetone, 40 mg/mL, RT, 14 d): Form I | Output Main phase [phase] ([1]; SLRT-14D-ACT(100 mg/ml), FIG. 83: acetone, 100 mg/mL, RT, 14 d): Form I | Output Main phase [phase] ([1]; SLRT-14D-BAC(100 mg/ml), FIG. 82: butyl acetate, 100 mg/mL, RT, 14 d): Form I | Output Crystallinity [high/low/SC/oriented] [1, 6]: low | Output Main phase [phase] [1, 6]: Form I | Output Main phase [phase] ([1]; SLRT-14D-ETA(100 mg/ml), FIG. 82: ethyl acetate, 100 mg/mL, RT, 14 d): Form I | Output Main phase [phase] ([1]; SLRT-14D-ETH(40 mg/ml), FIG. 79: ethanol, 40 mg/mL, RT, 14 d): Form I | Output Main phase [phase] ([1]; SLRT-14D-ETH(100 mg/ml), FIG. 82: ethanol, 100 mg/mL, RT, 14 d): Form I | Output Main phase [phase] ([1]; SLRT-14D-H2O, FIG. 74: water, 10 mg/mL, RT, 14 d): Form I | Output Main phase [phase] ([1]; SLRT-14D-HEP, FIG. 74: heptane, 10 mg/mL, RT, 14 d): Form I | Output Main phase [phase] ([1]; SLRT-14D-MET(50 mg/ml), FIG. 84: methanol, 50 mg/mL, RT, 14 d): Form I | Output Main phase [phase] ([1]; SLRT-14D-MIBK(100 mg/ml), FIG. 82: methyl isobutyl ketone, 100 mg/mL, RT, 14 d): Form I | Output Main phase [phase] ([1]; SLRT-14D-TOL(100 mg/ml), FIG. 83: toluene, 100 mg/mL, RT, 14 d): Form I | Polymorphic form recovered (XRPD) ([1]; all single solvent slurries): Form I | Output Crystallinity [high/low/SC/oriented] [2, 7]: low | Output Main phase [phase] [2, 7]: Form I | Output Main phase [phase] ([2]; 2-propanol 0.5 mL, 100 mg/mL, 75 to 25 °C, ramp −0.2): Form I | Output Crystallinity [high/low/SC/oriented] [2, 8]: low | Output Main phase [phase] [2, 8]: Form I | Output Crystallinity [high/low/SC/oriented] [2, 9]: low | Output Main phase [phase] [2, 9]: Form V | Output Crystallinity [high/low/SC/oriented] [2, 10]: low | Output Main phase [phase] [2, 10]: Form I | Output Crystallinity [high/low/SC/oriented] [2, 11]: low | Output Main phase [phase] [2, 11]: Form I | Output Main phase [phase] ([2]; ethanol 0.5 mL, 100 mg/mL, 75 to 25 °C, ramp −0.2): Form I | Output Main phase [phase] ([2]; ethyl acetate 0.5 mL, 100 mg/mL, 75 to 25 °C, ramp −0.2): Form I | Output Main phase [phase] ([2]; methyl isobutyl ketone 0.5 mL, 100 mg/mL, 25 to −20 °C, ramp not controlled, 1 d): Form X | XRPD Results Phase in traces ([3]; PAD-GRAD): Form XVI | XRPD Results Phase in traces ([3]; PAI-GRAD): Form IX
